According to PubChem BioAssay AID256 (DTP/NCI, 2004):
Where “and” joins values, the source holds several entries; their conditions need not be identical. Identical values can stand only once. Inconclusive results and toxic doses are left out. How the source made its calls: active means survival T/C of 150% or more; inactive means T/C below 125% in these data.

System: CD2F1 mice, L1210 leukemia ip, survival T/C
Test: NCI In Vivo Anticancer Drug Screen. Data for tumor model L1210 Leukemia (intraperitoneal) in CD2F1 (CDF1) mice
Details: higher = longer survival
Procedure, shortened: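 Activity against a transplanted murine tumor was judged by comparing the compound group with a vehicle group. The outcome in the treated animals was divided by that in the controls.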

[1] = endpoint: mean survival time, dose: 100.0 mg/kg/injection, schedule: Q01DX001 (ip), vehicle: saline with Tween-80
[2] = endpoint: mean survival time, dose: 200.0 mg/kg/injection, schedule: Q01DX001 (ip), vehicle: saline with Tween-80
[3] = endpoint: mean survival time, dose: 400.0 mg/kg/injection, schedule: Q01DX001 (ip), vehicle: saline with Tween-80
[4] = endpoint: mean survival time, dose: 75.0 mg/kg/injection, schedule: Q01DX001 (ip), vehicle: saline
[5] = endpoint: mean survival time, dose: 150.0 mg/kg/injection, schedule: Q01DX001 (ip), vehicle: saline
[6] = endpoint: mean survival time, dose: 100.0 mg/kg/injection, schedule: Q01DX009 (ip), vehicle: saline with Tween-80
[7] = endpoint: mean survival time, dose: 200.0 mg/kg/injection, schedule: Q01DX009 (ip), vehicle: saline with Tween-80
[8] = endpoint: mean survival time, dose: 400.0 mg/kg/injection, schedule: Q01DX009 (ip), vehicle: saline with Tween-80
[9] = endpoint: mean survival time, dose: 12.5 mg/kg/injection, schedule: Q04DX003 (ip), vehicle: saline with Tween-80
[10] = endpoint: mean survival time, dose: 25.0 mg/kg/injection, schedule: Q04DX003 (ip), vehicle: saline with Tween-80
[11] = endpoint: mean survival time, dose: 50.0 mg/kg/injection, schedule: Q01DX009 (ip), vehicle: saline with Tween-80
[12] = endpoint: mean survival time, dose: 50.0 mg/kg/injection, schedule: Q04DX003 (ip), vehicle: saline with Tween-80
[13] = endpoint: mean survival time, dose: 100.0 mg/kg/injection, schedule: Q04DX003 (ip), vehicle: saline with Tween-80
[14] = endpoint: mean survival time, dose: 100.0 mg/kg/injection, schedule: Q04DX002 (ip), vehicle: saline with Tween-80
[15] = endpoint: mean survival time, dose: 200.0 mg/kg/injection, schedule: Q04DX002 (ip), vehicle: saline with Tween-80
[16] = endpoint: mean survival time, dose: 400.0 mg/kg/injection, schedule: Q04DX002 (ip), vehicle: saline with Tween-80
[17] = endpoint: mean survival time, dose: 100.0 mg/kg/injection, schedule: Q04DX003 (ip), vehicle: saline
[18] = endpoint: mean survival time, dose: 200.0 mg/kg/injection, schedule: Q04DX003 (ip), vehicle: saline
[19] = endpoint: mean survival time, dose: 400.0 mg/kg/injection, schedule: Q04DX003 (ip), vehicle: saline
[20] = endpoint: mean survival time, dose: 200.0 mg/kg/injection, schedule: Q04DX003 (ip), vehicle: saline with Tween-80
[21] = endpoint: mean survival time, dose: 400.0 mg/kg/injection, schedule: Q04DX003 (ip), vehicle: saline with Tween-80

Measured: T/C

Nc1nc(-c2cccc([N+](=O)[O-])c2)c(N=Nc2ccc(Br)cc2)s1
inactive: [1] 96 % of control | [2] 87 % of control | [3] 90 % of control

CCN(CC)CCCC(C)Nc1nnc2c(=O)n(C)c(=O)n(C)c2n1 (stereo not drawn)
inactive: [4] 95 % of control | [5] 93 % of control | endpoint: mean survival time, dose: 300.0 mg/kg/injection, schedule: Q01DX001 (ip), vehicle: saline 87 % of control

CC(=O)NC(CCc1ccc(Cl)c(Cl)c1)c1cccc(O)c(=O)c1 (stereo not drawn)
inactive: endpoint: median survival time, dose: 3.12 mg/kg/injection, schedule: Q01DX009 (ip), vehicle: Klucel (hydroxypropylcellulose) (HPC) 94 % of control | endpoint: median survival time, dose: 6.25 mg/kg/injection, schedule: Q01DX009 (ip), vehicle: Klucel (hydroxypropylcellulose) (HPC) 100 % of control | endpoint: median survival time, dose: 12.5 mg/kg/injection, schedule: Q01DX009 (ip), vehicle: Klucel (hydroxypropylcellulose) (HPC) 106 % of control | endpoint: median survival time, dose: 25.0 mg/kg/injection, schedule: Q01DX009 (ip), vehicle: Klucel (hydroxypropylcellulose) (HPC) 102 % of control | endpoint: median survival time, dose: 50.0 mg/kg/injection, schedule: Q01DX009 (ip), vehicle: Klucel (hydroxypropylcellulose) (HPC) 103 % of control | endpoint: median survival time, dose: 100.0 mg/kg/injection, schedule: Q01DX009 (ip), vehicle: Klucel (hydroxypropylcellulose) (HPC) 116 % of control

C=C(Br)CNS(=O)(=O)c1ccc(OC)cc1
inactive: [6] 93 % of control | [7] 97 % of control | [8] 96 % of control

O=C1c2cscc2C(=O)c2c(Cl)sc(Cl)c21
inactive: [9] 96 % of control | endpoint: mean survival time, dose: 25.0 mg/kg/injection, schedule: Q01DX009 (ip), vehicle: saline with Tween-80 103 % of control | [10] 98 % of control | [11] 97 % of control | [12] 90 % of control | [6] 91 % of control | [13] 100 % of control

Cc1cn(CC(O)c2cc3ccccc3[nH]2)c(=O)[nH]c1=O (stereo not drawn)
inactive: [14] 97 % of control | [15] 97 % of control | [16] 93 % of control

CC(=O)OC1(c2ccccc2)OC(=O)c2ccccc21 (stereo not drawn)
inactive: [14] 97 % of control | [15] 91 % of control | [16] 108 % of control

CCOC(=O)C(Br)C(Br)c1cccc([N+](=O)[O-])c1 (stereo not drawn)
inactive: endpoint: mean survival time, dose: 25.0 mg/kg/injection, schedule: Q01DX009 (ip), vehicle: other 98 % of control | endpoint: mean survival time, dose: 50.0 mg/kg/injection, schedule: Q01DX009 (ip), vehicle: other 98 % of control | endpoint: mean survival time, dose: 100.0 mg/kg/injection, schedule: Q01DX009 (ip), vehicle: other 101 % of control

COC12C(COC(N)=O)C3=C(C(=O)C(C)=C(NC4CONC4=O)C3=O)N1CC1NC12 (stereo not drawn)
inactive: endpoint: mean survival time, dose: 1.5 mg/kg/injection, schedule: Q01DX001 (ip), vehicle: water 97 % of control | endpoint: mean survival time, dose: 3.0 mg/kg/injection, schedule: Q01DX001 (ip), vehicle: water 98 % of control | endpoint: mean survival time, dose: 6.0 mg/kg/injection, schedule: Q01DX001 (ip), vehicle: water 95 % of control | endpoint: mean survival time, dose: 12.0 mg/kg/injection, schedule: Q01DX001 (ip), vehicle: water 98 % of control | endpoint: mean survival time, dose: 24.0 mg/kg/injection, schedule: Q01DX001 (ip), vehicle: water 97 % of control | endpoint: mean survival time, dose: 50.0 mg/kg/injection, schedule: Q01DX001 (ip), vehicle: distilled water + Tween-80 112 % of control | endpoint: mean survival time, dose: 100.0 mg/kg/injection, schedule: Q01DX001 (ip), vehicle: distilled water + Tween-80 114 % of control

Nc1ncnc2[nH]c(=O)[nH]c12
inactive: endpoint: mean survival time, dose: 12.5 mg/kg/injection, schedule: Q01DX009 (ip), vehicle: saline 101 % of control | endpoint: mean survival time, dose: 25.0 mg/kg/injection, schedule: Q01DX009 (ip), vehicle: saline 114 % of control | endpoint: mean survival time, dose: 50.0 mg/kg/injection, schedule: Q01DX009 (ip), vehicle: saline 105 % of control | [17] 108 % of control | [18] 112 % of control | [19] 108 % of control

CSc1nc2cc(S(=O)(=O)N3CCCCC3)ccc2s1
inactive: [6] 93 % of control | [13] 89 % of control | [7] 95 % of control | [20] 89 % of control | [8] 93 % of control | [21] 86 % of control

CC(C)(C)c1ccc(C(=O)N2CCOC23CCCCC3)cc1
inactive: endpoint: median survival time, dose: 50.0 mg/kg/injection, schedule: Q01DX005 (ip), vehicle: saline with Tween-80 101 % of control and 104 % of control | endpoint: median survival time, dose: 100.0 mg/kg/injection, schedule: Q01DX005 (ip), vehicle: saline with Tween-80 96 % of control and 104 % of control | endpoint: median survival time, dose: 200.0 mg/kg/injection, schedule: Q01DX005 (ip), vehicle: saline with Tween-80 98 % of control and 101 % of control | endpoint: median survival time, dose: 400.0 mg/kg/injection, schedule: Q01DX005 (ip), vehicle: saline with Tween-80 100 % of control | endpoint: median survival time, dose: 800.0 mg/kg/injection, schedule: Q01DX005 (ip), vehicle: saline with Tween-80 96 % of control and 101 % of control

Clc1cc2n[nH]nc2c(Cl)n1
inactive: endpoint: mean survival time, dose: 25.0 mg/kg/injection, schedule: Q01DX009 (ip), vehicle: water 90 % of control | endpoint: mean survival time, dose: 50.0 mg/kg/injection, schedule: Q01DX009 (ip), vehicle: water 90 % of control | endpoint: mean survival time, dose: 100.0 mg/kg/injection, schedule: Q01DX009 (ip), vehicle: water 90 % of control

[Br][Pt+2][Br].[NH-]C(c1ccccc1)C([NH-])c1ccccc1 (stereo not drawn)
inactive: [9] 109 % of control and 119 % of control | [10] 107 % of control and 109 % of control | [12] 109 % of control

COc1nc(=O)n(C2C=CC(=O)O2)cc1F (stereo not drawn)
inactive: endpoint: median survival time, dose: 6.25 mg/kg/injection, schedule: Q01DX009 (ip), vehicle: saline 98 % of control | endpoint: median survival time, dose: 12.5 mg/kg/injection, schedule: Q01DX009 (ip), vehicle: saline 100 % of control | endpoint: median survival time, dose: 25.0 mg/kg/injection, schedule: Q01DX009 (ip), vehicle: saline 108 % of control | endpoint: median survival time, dose: 50.0 mg/kg/injection, schedule: Q01DX009 (ip), vehicle: saline 108 % of control | endpoint: median survival time, dose: 100.0 mg/kg/injection, schedule: Q01DX009 (ip), vehicle: saline 110 % of control

O=CN1CCCCC1
inactive: endpoint: mean survival time, dose: 100.0 mg/kg/injection, schedule: Q04DX002 (ip), vehicle: saline 97 % of control | endpoint: mean survival time, dose: 200.0 mg/kg/injection, schedule: Q04DX002 (ip), vehicle: saline 108 % of control

COc1cc(OC)c(NC(=O)OCCOc2ccc(Br)cc2)cc1Cl
inactive: [11] 90 % of control | [6] 90 % of control | [7] 97 % of control

Cc1nc2nc(N)[nH]c(=O)c2nc1C
inactive: [1] 95 % of control | [2] 98 % of control | [3] 90 % of control

Cc1cc(SCc2ccccc2)cc(C)[o+]1
inactive: [4] 106 % of control | [5] 93 % of control

C#CC(C)OCCO (stereo not drawn)
inactive: endpoint: mean survival time, dose: 100.0 mg/kg/injection, schedule: Q04DX003 (ip), vehicle: acetone 104 % of control | endpoint: mean survival time, dose: 200.0 mg/kg/injection, schedule: Q04DX003 (ip), vehicle: acetone 98 % of control | endpoint: mean survival time, dose: 400.0 mg/kg/injection, schedule: Q04DX003 (ip), vehicle: acetone 120 % of control

CCOC(=O)Cc1cccc(CC(O)(c2ccccc2)c2ccccc2)n1
inactive: [6] 100 % of control | [17] 92 % of control | [7] 98 % of control | [18] 90 % of control | [8] 100 % of control | [19] 87 % of control

CNC(=O)Oc1cccc(NC(=O)OC(C)C(C)C)c1 (stereo not drawn)
inactive: [13] 98 % of control | [20] 90 % of control | [21] 96 % of control

Cc1ccc(S(=O)(=O)OCC2OC3(COS(=O)(=O)c4ccc(C)cc4)OC(C)(C)OC3C2O)cc1 (stereo not drawn)
inactive: [13] 93 % of control | [20] 101 % of control

OC1CCCC2OC12 (stereo not drawn)
inactive: [17] 93 % of control | [18] 96 % of control | [19] 93 % of control
